Columns and labels:
Botrytis cinerea = experiment: Activity against Botrytis cinerea on bell peppers (fruit disks, protective spray); type: in vivo; settings: green bell pepper disks, 4 days at 18° C.
Experimental: The active ingredients, separately or together, are formulated as a 10% emulsion in a mixture of 63% by weight of cyclohexanone and 27% by weight of emulsifier, and diluted with water to the desired concentration.
Evaluation is carried out by determining the infected leaf areas in percent. These percentages are converted into efficacies. The efficacy (W) is calculated as follows using Abbot's formula: […]
α corresponds to the fungal infection of the treated plants in % and
β corresponds to the fungal infection of the untreated (control) plants in %
An efficacy of 0 means that the infection level of the treated plants corresponds to that of the untreated control plants; an efficacy of 100 means that the treated plants were not infected.
The expected efficacies of the mixtures of the active ingredients were determined using Colby's formula [R. S. Colby, Weeds 15, 20-22 (1967)] and compared with the observed efficacies.
Colby's formula: E=x+y−x·y/100
Disks of green bell peppers were sprayed to runoff point with an aqueous preparation of active ingredient which had been prepared from a stock solution comprising 10% of active ingredient, 63% of cyclohexanone and 27% of emulsifier. 2 hours after the spray coating had dried on, the fruit disks were inoculated with a spore suspension of Botrytis cinerea containing 1.7×10^6 spores per ml of a 2% strength Biomalz solution. The inoculated fruit disks were subsequently incubated in humid chambers at 18° C. for 4 days. The Botrytis infection on the diseased fruit disks was then evaluated visually.

Phytophthora infestans = type: in vivo; settings: 0.8 ppm active ingredient in the spray liquor; tomato leaves; after 6 days at 16-18° C.
[1] = 12.5 ppm active ingredient in the spray liquor
[2] = 50 ppm active ingredient in the spray liquor

Row | SMILES | Efficacy in % of the untreated control (Botrytis cinerea; [1]) [%] | Efficacy in % of the untreated control (Phytophthora infestans) [%] | Efficacy in % of the untreated control (Botrytis cinerea; [2]) [%]
1 | O=C(Nc1ccccc1-c1ccc(F)cc1)c1cccnc1Cl [Compound I.1] | 20 | 0 | 
2 | O=C(Nc1ccccc1-c1ccc(Cl)cc1)c1cccnc1Cl [Compound I.2] |  | 0 | 85
3 | N#Cc1c(Cl)c(Cl)c(Cl)c(C#N)c1Cl [Compound II, Tetrachloroisophthalonitrile, reference compound] | 0 | 0 | 0
